Reference: patent US10253017B2, “Derivatives of 2-aminopyridine as adenosine A2B receptor antagonists and ligands of the melatonin MT3 receptors” (PALOBIOFARMA, S.L., priority 2015, dated 2019)

Tests used:
adenosine A2B receptor = adenosine A2B receptor (Homo sapiens (Human), UniProt P29275); assay: Adenosine A2B receptor subtype competition radioligand binding assay ([3H]DPCPX); conditions: human recombinant receptor (HEK-293 cells), [3H]DPCPX radioligand; read-out: hA2B, Ki
Description: Adenosine A2B Receptor Subtype Competition Radioligand Binding Assay

adenosine A2A receptor = adenosine A2A receptor (Homo sapiens (Human), UniProt P29274); assay: Adenosine A2A receptor binding (hA2A Ki)
MT3 melatonin receptor = MT3 melatonin receptor (Mesocricetus auratus, UniProt A0ABM2YAB8); assay: Binding to melatonin MT3 binding sites ([125I]2-iodomelatonin, hamster brain membranes); conditions: [125I]2-iodomelatonin radioligand
Procedure: Study of Binding to Melatonin MT3 Binding Sites
The experiment of binding to MT3 sites was carried out on hamster brain membranes using [^125I]2-iodomelatonin as radioligand in accordance with the protocol described by Pickering, D. S et al. (Pickering, D. S et al, 1990, Pharmacological characterization of melatonin binding sites in Syrian hamster hypothalamus, Eur J Pharmacol. 1990 Jan. 3; 175(1):71-7).

Chain of MT3 melatonin receptor (A0ABM2YAB8 1-231): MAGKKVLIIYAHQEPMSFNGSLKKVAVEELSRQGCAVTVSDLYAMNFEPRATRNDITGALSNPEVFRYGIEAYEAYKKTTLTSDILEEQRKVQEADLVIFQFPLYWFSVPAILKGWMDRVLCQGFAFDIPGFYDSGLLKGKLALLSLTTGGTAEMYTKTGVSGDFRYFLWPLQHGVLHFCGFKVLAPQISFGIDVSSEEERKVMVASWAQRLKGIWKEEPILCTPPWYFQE
Chain of adenosine A2A receptor (P29274 whole entry): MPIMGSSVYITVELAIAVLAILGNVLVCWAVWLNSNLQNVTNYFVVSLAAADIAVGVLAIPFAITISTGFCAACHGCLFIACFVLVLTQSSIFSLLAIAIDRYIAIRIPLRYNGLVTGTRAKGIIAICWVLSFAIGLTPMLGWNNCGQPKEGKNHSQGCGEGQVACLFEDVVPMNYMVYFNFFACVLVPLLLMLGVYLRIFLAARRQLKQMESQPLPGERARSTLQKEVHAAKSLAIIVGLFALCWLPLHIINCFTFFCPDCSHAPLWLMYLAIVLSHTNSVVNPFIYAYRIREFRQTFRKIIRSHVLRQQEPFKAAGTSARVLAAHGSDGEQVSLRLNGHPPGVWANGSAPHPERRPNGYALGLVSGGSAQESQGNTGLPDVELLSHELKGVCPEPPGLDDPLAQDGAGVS
Chain of adenosine A2B receptor (P29275 whole entry): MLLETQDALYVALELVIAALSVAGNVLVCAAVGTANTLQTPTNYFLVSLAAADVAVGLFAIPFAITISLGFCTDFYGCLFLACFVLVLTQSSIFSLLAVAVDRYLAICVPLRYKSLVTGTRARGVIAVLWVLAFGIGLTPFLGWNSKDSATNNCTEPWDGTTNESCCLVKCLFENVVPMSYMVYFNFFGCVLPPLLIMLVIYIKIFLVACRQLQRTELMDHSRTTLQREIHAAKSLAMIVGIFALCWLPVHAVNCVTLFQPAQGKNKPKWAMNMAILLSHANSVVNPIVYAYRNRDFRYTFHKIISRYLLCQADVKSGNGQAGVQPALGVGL

| SMILES | Ki (adenosine A2B receptor) [nM] | Ki (adenosine A2A receptor) [nM] | IC50 (MT3 melatonin receptor) [nM] |
| --- | --- | --- | --- |
| Nc1ccc(-c2ccncc2F)c(-c2ccncc2)n1 [Example 11, 5-(3-fluoropyridin-4-yl)-6-(pyridin-4-yl)pyridin-2-amine] | 149 | > 5000 |  |
| Nc1nc(-c2cccnc2)c(-c2ccncc2)cc1Cl [Example 21, 3-chloro-6-(pyridin-3-yl)-5-(pyridin-4-yl)pyridin-2-amine] | 34.5 | 500 | 130 |
| Nc1nc(-c2cccnc2)c(-c2ccncc2)cc1Br [Example 22, 3-bromo-6-(pyridin-3-yl)-5-(pyridin-4-yl)pyridin-2-amine] | 46.1 | 300 | 140 |
| Nc1nc(-c2cccnc2)c(-c2ccncc2F)cc1Cl [Example 23, 3-chloro-5-(3-fluoropyridin-4-yl)-6-(pyridin-3-yl)pyridin-2-amine] | 23.9 | 4800 | 98 |

More lines, now with the values ahead:

| Ki (adenosine A2B receptor) [nM] | Ki (adenosine A2A receptor) [nM] | IC50 (MT3 melatonin receptor) [nM] | SMILES |
| --- | --- | --- | --- |
| 37 | > 5000 |  | Nc1nc(-c2cccnc2)c(-c2ccncc2F)cc1Br [Example 24, 3-bromo-5-(3-fluoropyridin-4-yl)-6-(pyridin-3-yl)pyridin-2-amine] |
| 150 | > 5000 | 250 | Nc1nc(-c2cncc(F)c2)c(-c2ccncc2F)cc1Cl [Example 27, 3-chloro-6-(5-fluoropyridin-3-yl)-5-(3-fluoropyridin-4-yl)pyridin-2-amine] |
| 12 | 555 |  | Nc1nc(-c2ccncc2)c(-c2ccncc2F)cc1Cl [Example 34, 3-chloro-5-(3-fluoropyridin-4-yl)-6-(pyridin-4-yl)pyridin-2-amine] |
| 13 | 1300 |  | Nc1nc(-c2ccncc2)c(-c2ccncc2F)cc1Br [Example 35, 3-bromo-5-(3-fluoropyridin-4-yl)-6-(pyridin-4-yl)pyridin-2-amine] |
| 24 | > 5000 |  | COc1ccc(-c2nc(N)c(Cl)cc2-c2ccncc2F)cn1 [Example 36, 3-chloro-5-(3-fluoropyridin-4-yl)-6-(6-methoxypyridin-3-yl)pyridin-2-amine] |
